Experiments:
Test in all cases: MIC, CLSI broth microdilution
Format in all cases: cell-based
[1] = tested on: A. baumannii AABA1009 (Fluoroquinolone-resistant); conditions: Table 2
Outline: (§1)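 Broth microdilution per CLSI M7-A7, with serial two-fold compound dilutions in Mueller Hinton Broth mixed 1:1 with inoculum. Colonies from a previous-day agar plate were suspended in saline to a final 5×10^5 CFU/mL. Plates were incubated 20 hours at 35° C. in ambient air.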

[2] = tested on: A. baumannii AABA1020 (Fluoroquinolone-resistant); conditions: Table 3
Outline: as §1

[3] = tested on: A. baumannii AABA1065 (Fluoroquinolone-susceptible)
Outline: as §1

[4] = tested on: E. coli AECO001 (Fluoroquinolone susceptible, ATCC25922)
Outline: as §1

[5] = tested on: E. coli AECO002 (Fluoroquinolone susceptible); conditions: Table 3
Outline: as §1

[6] = tested on: E. coli AECO066 (Fluoroquinolone-resistant)
Outline: as §1

[7] = tested on: E. coli AECO086 (Fluoroquinolone-resistant); conditions: Table 3
Outline: as §1

[8] = tested on: P. aeruginosa APAE001 (Fluoroquinolone-susceptible, ATCC27853)
Outline: as §1

[9] = tested on: P. aeruginosa APAE002 (Fluoroquinolone susceptible); conditions: Table 3
Outline: as §1

[10] = tested on: P. aeruginosa APAE054 (Fluoroquinolone-resistant)
Outline: as §1

[11] = tested on: S. aureus ASAU001 (Fluoroquinolone-susceptible, ATCC29213)
Outline: as §1

[12] = tested on: S. aureus ASAU002 (Fluoroquinolone-susceptible, ATCC33591 (MRSA)); conditions: Table 3
Outline: as §1

[13] = tested on: S. aureus ASAU1031 (Fluoroquinolone-resistant)
Outline: as §1

[14] = tested on: S. aureus ASAU1033 (Fluoroquinolone-resistant); conditions: Table 3
Outline: as §1

[15] = tested on: S. pneumoniae ASPN001 (Fluoroquinolone-susceptible, ATCC49619)
Outline: as §1

[16] = tested on: S. pneumoniae ASPN002 (Fluoroquinolone-susceptible, ATCC10813); conditions: Table 3
Outline: as §1

[17] = tested on: S. pneumoniae ASPN1018 (Fluoroquinolone-resistant); conditions: Table 3
Outline: as §1

[18] = tested on: S. pneumoniae ASPN1027 (Fluoroquinolone-resistant)
Outline: as §1

| Structure (SMILES) | MIC AABA 1009 [1] | MIC AABA1020 [2] | MIC AABA 1065 ([3]; Table 2) | MIC AABA 1065 ([3]; Table 3) | MIC AECO 001 ([4]; Table 2, 35° C., 20 hours) | MIC AECO 001 ([4]; Table 3) | MIC AECO002 [5] | MIC AECO 066 ([6]; Table 2) | MIC AECO 066 ([6]; Table 3) | MIC AECO086 [7] | MIC APAE 001 ([8]; Table 2) | MIC APAE 001 ([8]; Table 3) | MIC APAE002 [9] | MIC APAE 054 ([10]; Table 2) | MIC APAE 054 ([10]; Table 3) | MIC ASAU 001 ([11]; Table 2) | MIC ASAU 001 ([11]; Table 3) | MIC ASAU002 [12] | MIC ASAU 1031 ([13]; Table 2) | MIC ASAU 1031 ([13]; Table 3) | other results |
| --- | --- | --- | --- | --- | --- | --- | --- | --- | --- | --- | --- | --- | --- | --- | --- | --- | --- | --- | --- | --- | --- |
| N[C@H]1C[C@H]2CC=Cc3c(c(F)cc4c(=O)c(C(=O)O)cn(C5CC5)c34)N2C1.O=C(O)C(F)(F)F [7B/18, (7aR,9S)-9-Amino-4-cyclopropyl-12-fluoro-1-oxo-4,7,7a,8,9,10-hexahydro-1H-pyrrolo[1′,2′:1,7]azepino[2,3h]-quinoline-2-carboxylic acid trifluoroacetate] | C (MIC's of greater than 8.0 μg/mL = C) | C (MIC's of 2.0 μg/mL to 8.0 μg/mL = C) | A (MIC's of 1.0 μg/mL or less = A) | A (MIC's of less than 1.0 = A) | A (MIC's of 1.0 μg/mL or less = A) | A (MIC's of less than 1.0 = A) | A (MIC's of less than 1.0 = A) | B (MIC's of greater than 1.0 μg/mL to 8.0 μg/mL = B) | C (MIC's of 2.0 μg/mL to 8.0 μg/mL = C) | C (MIC's of 2.0 μg/mL to 8.0 μg/mL = C) | A (MIC's of 1.0 μg/mL or less = A) | A (MIC's of less than 1.0 = A) | A (MIC's of less than 1.0 = A) | C (MIC's of greater than 8.0 μg/mL = C) | D (MIC's of greater than 8.0 μg/mL = D) | A (MIC's of 1.0 μg/mL or less = A) | A (MIC's of less than 1.0 = A) | A (MIC's of less than 1.0 = A) | B (MIC's of greater than 1.0 μg/mL to 8.0 μg/mL = B) | C (MIC's of 2.0 μg/mL to 8.0 μg/mL = C) | MIC ASAU1033 [14]: D (MIC's of greater than 8.0 μg/mL = D); MIC ASPN 001 ([15]; Table 2): A (MIC's of 1.0 μg/mL or less = A); MIC ASPN 001 ([15]; Table 3): A (MIC's of less than 1.0 = A); MIC ASPN002 [16]: A (MIC's of less than 1.0 = A); MIC ASPN1018 [17]: B (MIC's of 1.0 μg/mL to 2.0 μg/mL = B); MIC ASPN 1027 ([18]; Table 2): B (MIC's of greater than 1.0 μg/mL to 8.0 μg/mL = B); MIC ASPN 1027 ([18]; Table 3): C (MIC's of 2.0 μg/mL to 8.0 μg/mL = C) |
| NC1CC2CCCc3c(c(F)cc4c(=O)c(C(=O)O)cn(C5CC5)c34)N2C1.O=C(O)C(F)(F)F [7C/29, (7aS,9S)-9-Amino-4-cyclopropyl-12-fluoro-1-oxo-4,5,6,7,7a,8,9,10-octahydro-1H-pyrrolo quinoline-2-carboxylic acid trifluoroacetate] | C (MIC's of greater than 8.0 μg/mL = C) | D (MIC's of greater than 8.0 μg/mL = D) | B (MIC's of greater than 1.0 μg/mL to 8.0 μg/mL = B) | C (MIC's of 2.0 μg/mL to 8.0 μg/mL = C) | B (MIC's of greater than 1.0 μg/mL to 8.0 μg/mL = B) | C (MIC's of 2.0 μg/mL to 8.0 μg/mL = C) | C (MIC's of 2.0 μg/mL to 8.0 μg/mL = C) | C (MIC's of greater than 8.0 μg/mL = C) | D (MIC's of greater than 8.0 μg/mL = D) | D (MIC's of greater than 8.0 μg/mL = D) | C (MIC's of greater than 8.0 μg/mL = C) | D (MIC's of greater than 8.0 μg/mL = D) | D (MIC's of greater than 8.0 μg/mL = D) | C (MIC's of greater than 8.0 μg/mL = C) | D (MIC's of greater than 8.0 μg/mL = D) | B (MIC's of greater than 1.0 μg/mL to 8.0 μg/mL = B) | C (MIC's of 2.0 μg/mL to 8.0 μg/mL = C) | C (MIC's of 2.0 μg/mL to 8.0 μg/mL = C) | C (MIC's of greater than 8.0 μg/mL = C) | D (MIC's of greater than 8.0 μg/mL = D) | MIC ASAU1033 [14]: D (MIC's of greater than 8.0 μg/mL = D); MIC ASPN 001 ([15]; Table 2): C (MIC's of greater than 8.0 μg/mL = C); MIC ASPN 001 ([15]; Table 3): D (MIC's of greater than 8.0 μg/mL = D); MIC ASPN002 [16]: D (MIC's of greater than 8.0 μg/mL = D); MIC ASPN1018 [17]: D (MIC's of greater than 8.0 μg/mL = D); MIC ASPN 1027 ([18]; Table 2): C (MIC's of greater than 8.0 μg/mL = C); MIC ASPN 1027 ([18]; Table 3): D (MIC's of greater than 8.0 μg/mL = D) |
| NC1CC2CC=Cc3c(c(F)cc4c(=O)c(C(=O)O)cn(C5CC5)c34)N2C1.O=C(O)C(F)(F)F [7C/30, (7aS,9S)-9-Amino-4-cyclopropyl-12-fluoro-1-oxo-4,7,7a,8,9,10-hexahydro-1H-pyrrolo[1′,2′:1,7]azepino-[2,3-h]quinoline-2-carboxylic acid trifluoroacetate] | C (MIC's of greater than 8.0 μg/mL = C) | D (MIC's of greater than 8.0 μg/mL = D) | B (MIC's of greater than 1.0 μg/mL to 8.0 μg/mL = B) | C (MIC's of 2.0 μg/mL to 8.0 μg/mL = C) | B (MIC's of greater than 1.0 μg/mL to 8.0 μg/mL = B) | B (MIC's of 1.0 μg/mL to 2.0 μg/mL = B) | B (MIC's of 1.0 μg/mL to 2.0 μg/mL = B) | C (MIC's of greater than 8.0 μg/mL = C) | D (MIC's of greater than 8.0 μg/mL = D) | D (MIC's of greater than 8.0 μg/mL = D) | C (MIC's of greater than 8.0 μg/mL = C) | D (MIC's of greater than 8.0 μg/mL = D) | D (MIC's of greater than 8.0 μg/mL = D) | C (MIC's of greater than 8.0 μg/mL = C) | D (MIC's of greater than 8.0 μg/mL = D) | B (MIC's of greater than 1.0 μg/mL to 8.0 μg/mL = B) | B (MIC's of 1.0 μg/mL to 2.0 μg/mL = B) | B (MIC's of 1.0 μg/mL to 2.0 μg/mL = B) | C (MIC's of greater than 8.0 μg/mL = C) | D (MIC's of greater than 8.0 μg/mL = D) | MIC ASAU1033 [14]: D (MIC's of greater than 8.0 μg/mL = D); MIC ASPN 001 ([15]; Table 2): B (MIC's of greater than 1.0 μg/mL to 8.0 μg/mL = B); MIC ASPN 001 ([15]; Table 3): C (MIC's of 2.0 μg/mL to 8.0 μg/mL = C); MIC ASPN002 [16]: C (MIC's of 2.0 μg/mL to 8.0 μg/mL = C); MIC ASPN1018 [17]: C (MIC's of 2.0 μg/mL to 8.0 μg/mL = C); MIC ASPN 1027 ([18]; Table 2): B (MIC's of greater than 1.0 μg/mL to 8.0 μg/mL = B); MIC ASPN 1027 ([18]; Table 3): C (MIC's of 2.0 μg/mL to 8.0 μg/mL = C) |
